Assay [1] relates to CSPG. Briefly: CSPG-neoepitope immunolabeling of injured sciatic nerve after in vivo injection. Further details: species or system rat. Conditions: single injection 1 U in 2 μl, 2 mm distal to injury; 4 days (transection) or 2 days (crush). The procedure: Surgical procedures for nerve transection and nerve crush experiments. All surgical procedures were performed according to Institutional Animal Care and Use Committee (IACUC) approved protocols. Young adult SPRAGUE DAWLEY rats (HARLAN Indianapolis, Ind.) were deeply anesthetized with xylazine (15 mg/kg, i.m.) followed by ketamine-HCl (110 mg/kg, i.p.). Six animals received bilateral nerve crush injuries. Sciatic nerves were exposed and then crushed with firm pressure for thirty seconds with a DUMONT #5 forceps at a site 4 mm distal to the tendon of the internal obdurator. The crush site was marked with an epineurial suture. In a separate set of experiments, eight rats received bilateral sciatic nerve transection injuries using serrated scissors. The proximal and distal stumps were […] by epineurial neurorrhaphy using 9-0 ETHILON sutures. Fibrin glue (fibrinogen and thrombin) was then applied to stabilize the union. In both injury models, the right sciatic nerves were injected 2-mm distal to the injury with chondroitinase ABC (1 U in 2 μl) (high-purity, protease-free; SIGMA CHEMICAL CO., St. Louis, Miss.). Left sciatic nerves (with the same injury as the right side) were injected with vehicle alone (0.1% bovine serum albumin in PBS). […]
(§1) Immunocytochemistry. Axonal regeneration was assessed by GAP-43 immunofluorescence and digital image analysis. […]

Assay [2] relates to CSPG. Briefly: CSPG neoepitope (Ab1918) immunolabeling of acellular rat sciatic nerve segments treated en bloc. The format is biochemical. Conditions: en bloc treatment 16 h.
Excerpt: Preparation of acellular nerve grafts treated with chondroitinase. Adult (180-200 g) female SPRAGUE DAWLEY rats (HARLAN, Indianapolis, Ind.) were used as nerve donors and recipient hosts. Donor rats were anesthetized with halothane and decapitated. Sciatic nerves were exposed through a gluteal muscle-splitting incision and isolated free of underlying fascia. A 15-mm nerve segment was excised rostral to the bifurcation into common peroneal and tibial nerves. The segments were rinsed with cold sterile Ringer's solution, stabilized by pinning the ends to a thin plastic support, and transferred to a cryogenic vial. The vials were submerged in liquid nitrogen for 2 minutes and then transferred to a 37° C. water bath for 2 minutes. This freeze/thaw cycle was repeated, yielding acellular nerve grafts that were then stored in liquid nitrogen. On the day before grafting, the nerve grafts were warmed to room temperature and incubated in 100 μl phosphate buffered saline pH 7.4 (PBS) containing 2 units/ml chondroitinase ABC (SIGMA, St. Louis, Mo.) or in PBS (vehicle) only for 16 hours at 37° C. The grafts were rinsed twice with Ringer's and kept on ice prior to use. […]
as §1

With chondroitinase ABC, the “CSPG degradation in extracellular matrix around injection site” value in the assay on CSPG [1] was “substantially, if not completely, degraded CSPG”. The “CSPG degradation (Ab1918 neoepitope immunostaining)” value in the assay with CSPG [2] is “thoroughly degraded CSPG side-chains”.

Source of the values: patent US8986733B2, “Materials and methods for nerve repair” (University of Florida Research Foundation, Inc., priority 2001, dated 2015).
